Results from patent US20260274814A1, “THIENYL COMPOUNDS FOR THE TREATMENT OF A CENTRAL NERVOUS SYSTEM DISEASE OR DISORDER” (Coreterra Therapeutics, Inc., priority 2023, published 2026).

Test system: mice
Test: Neuropharmacological Assay (SmartCube): automated behavioral signature of compound-treated mice compared with a database of reference drug classes
Format: in vivo
Conditions: for AG / AN / CE / HL / MS / PS / SH / UK / AD / AP / AX: probability that activity matches this class of agents, 3.0 mg/kg i.p., 15 min before test
Text: Neurosci. 2011 Sep. 9; 5: 103 (doi: 10.3389/fnins.2011.00103) (“Roberds”). As reported in Roberds, because psychiatric diseases generally result from disorders of cell-cell communication or circuitry, intact systems are useful in detecting improvement in disease-relevant endpoints. These endpoints are typically behavioral in nature, often requiring human observation and interpretation. To facilitate testing of multiple compounds for behavioral effects relevant to psychiatric disease, PsychoGenics, Inc. (Tarrytown, NY, “PGI”) developed SmartCube™ an automated system in which behaviors of compound-treated mice are captured by digital video and analyzed with computer algorithms. (D. Brunner et al. Drug Discov. Today 2002, 7:S107-S112). PGI Analytical Systems uses data from SmartCube™ to compare the behavioral signature of a test compound to a database of behavioral signatures obtained using a large set of diverse reference compounds. (The composition of the database as well as validation of the method is further described in Roberds). In this way, the neuropharmacological effects of a test compound can be predicted by similarity to major classes of compounds, such as antipsychotics, anxiolytics and antidepressants.
The SmartCube™ system produces an activity signature indicating the probability that the activity of the test compound at the administered dose matches a given class of neuropharmacological agents. (See, e.g., Roberds, FIGS. 2 and 3). The test compound is simultaneously compared against multiple classes of agents; thus, a separate probability is generated for each behavioral effect measured (e.g., anxiolytic activity, analgesic activity, etc.). In table 2 below, these probabilities are reported for each behavioral effect measured as described in Table 1 below.
Provided compounds were dissolved in a mixture of Pharmasolve™ (N-methyl-2-pyrrolidone), polyethylene glycol and propylene glycol, and were injected i.p. 15 min. before the behavioral test. For each compound, injections were administered at 3 different doses. For each behavioral effect measured, results for the 3.0 mg/kg dose are presented. The potency of many of the compounds in the table was also determined in the SmartCube™ system. Test compounds were routinely examined at dose levels of 0.3, 1, 3 and 10 mg per kg (mpk), although the dose range was increased or decreased, if necessary, to obtain a full dose response curve. A compound's minimal effective dose (MED) is a measure of the compound's potency. The MED was defined as the dose (in mpk) having 45% or more total activity in SmartCube. If only one dose was tested, that dose is shown in the MED column of Table 2 even though the dose is not known to be the MED.

[1] = dose having 45% or more total activity in SmartCube, i.p., if only one dose was tested, that dose is shown, hydrochloride

## CNC1CCc2sccc2C1.Cl (single isomer, unassigned) [Compound 12, N-methyl-4,5,6,7-tetrahydrobenzothiophen-5-amine hydrochloride]
[1]
  MED (minimal effective dose): 1.0 mpk
  AG: ND (^ <4%)
  AN: ND (^ <4%)
  CE: ND (^ <4%)
  HL: ND (^ <4%)
  MS: ND (^ <4%)
  PS: ND (^ <4%)
  SH: ND (^ <4%)
  UK: ND (^ <4%)
hydrochloride, 3 mg/kg
  AD: ++ (≥24%)
  AP: + (≥4%)
  AX: ++ (≥24%)

## CNC1CCc2cscc2C1.Cl (single isomer, unassigned) [Compound 13, N-methyl-4,5,6,7-tetrahydro-2-benzothiophen-5-amine hydrochloride]
Mus musculus, ip, dose having 45% or more total activity in SmartCube, i.p., if only one dose was tested, that dose is shown, read-out: MED (minimal effective dose)
  minimal effective dose: 0.3 mg/kg
  AG: ND (^ <4%)
  AN: ND (^ <4%)
  AX: + (≥4%)
  HL: ND (^ <4%)
  MS: ND (^ <4%)
  PS: ND (^ <4%)
  SH: ND (^ <4%)
  UK: ND (^ <4%)
hydrochloride, 3 mg/kg
  AD: ND (^ <4%)
  AP: +++ (≥49%)
  CE: + (≥4%)

## CNC1CCc2cscc2C1.Cl (single isomer, unassigned) [Compound 14, N-methyl-4,5,6,7-tetrahydro-2-benzothiophen-5-amine hydrochloride]
Dose having 45% or more total activity in SmartCube, i.p., if only one dose was tested, that dose is shown
  MED (minimal effective dose): 0.3 mpk
  AG: ND (^ <4%)
  AN: ND (^ <4%)
  AX: + (≥4%)
  HL: ND (^ <4%)
  MS: ND (^ <4%)
  PS: ND (^ <4%)
  SH: ND (^ <4%)
  UK: ND (^ <4%)
hydrochloride, 3 mg/kg
  AD: ++ (≥24%)
  AP: + (≥4%)
  CE: ND (^ <4%)

## CN(C)C1CCc2ccsc2C1.Cl (single isomer, unassigned) [Compound 15, N,N-dimethyl-4,5,6,7-tetrahydrobenzothiophen-6-amine hydrochloride]
[1]
  MED (minimal effective dose): 0.3 mpk
  AD: ND (^ <4%)
  AG: ND (^ <4%)
  AN: ND (^ <4%)
  HL: ND (^ <4%)
  MS: ND (^ <4%)
  PS: ND (^ <4%)
  SH: ND (^ <4%)
  UK: ND (^ <4%)
hydrochloride, 3 mg/kg
  AP: + (≥4%)
  AX: +++ (≥49%)
  CE: ++ (≥24%)

## CN(C)C1CCc2ccsc2C1.Cl (single isomer, unassigned) [Compound 16, N,N-dimethyl-4,5,6,7-tetrahydrobenzothiophen-6-amine hydrochloride]
[1]
  MED (minimal effective dose): 1.0 mpk
  AD: ND (^ <4%)
  AG: ND (^ <4%)
  AN: ND (^ <4%)
  HL: ND (^ <4%)
  MS: ND (^ <4%)
  PS: ND (^ <4%)
  SH: ND (^ <4%)
  UK: ND (^ <4%)
hydrochloride, 3 mg/kg
  AP: ND (^ <4%)
  AX: ++++ (≥74%)
  CE: ND (^ <4%)

## Cl.c1cc2c(s1)CC(N1CCCC1)CC2 (single isomer, unassigned) [Compound 17, 1-(4,5,6,7-tetrahydrobenzothiophen-6-yl)pyrrolidine hydrochloride]
[1]
  MED (minimal effective dose): 1.0 mpk
  AG: ND (^ <4%)
  AN: ND (^ <4%)
  CE: ND (^ <4%)
  HL: ND (^ <4%)
  MS: ND (^ <4%)
  PS: ND (^ <4%)
  SH: ND (^ <4%)
  UK: ND (^ <4%)
hydrochloride, 3 mg/kg
  AD: ND (^ <4%)
  AP: +++ (≥49%)
  AX: ++++ (≥74%)

## Cl.c1cc2c(s1)CC(N1CCCC1)CC2 (single isomer, unassigned) [Compound 18, 1-(4,5,6,7-tetrahydrobenzothiophen-6-yl)pyrrolidine hydrochloride]
[1]
  MED (minimal effective dose): 0.3 mpk
  AG: ND (^ <4%)
  AN: ND (^ <4%)
  CE: ND (^ <4%)
  HL: ND (^ <4%)
  MS: ND (^ <4%)
  PS: ND (^ <4%)
  SH: ND (^ <4%)
  UK: ND (^ <4%)
hydrochloride, 3 mg/kg
  AD: ++++ (≥74%)
  AP: + (≥4%)
  AX: ND (^ <4%)
